Each structure is given as a SMILES string.

Inhibition data for 30 compounds are collected here from US11939307B2, “Phenylmethyl-piperazine derivatives and antiviral uses thereof” (INSTITUTE OF MEDICINAL BIOTECHNOLOGY, CHINESE ACADEMY OF …, priority 2019, dated 2024).

The test system of the experiment is HCV. Briefly: Assay of anti-HCV activity in HCV-infected Huh7.5 cells (intracellular HCV RNA by one-step quantitative RT-PCR). The class given is cell-based. The settings on record: Hepatitis C virus; compound at 1 μM; Huh7.5 cells infected with HCV; 96 hrs; intracellular HCV RNA vs viral control; read-out: inhibitory activities (inhibitory levels of the compounds against HCV replication). The procedure: 100 μL Huh7.5 cells were seeded at a density of 1×10^5/mL in a 96-well cell culture plate and incubated in an incubator at 37° C., 5% CO2 and saturated humidity for 6 hrs. Then, while infecting Huh7.5 cells with viral solution containing HCV virus particles, the compounds of the present invention (including all specific compounds listed herein) were added at a concentration of 1 μM, respectively. After continuing incubation for 96 hrs, the total intracellular RNA was extracted separately, and the content of intracellular HCV RNA was measured by one-step quantitative RT-PCR, compared with the RNA level of the viral control, and the inhibition rate of the compounds against HCV was calculated.
With `CN1CCN(c2ccc(C(F)(F)F)c(CN3CCN(Cc4ccc(Cl)c(Cl)c4)CC3)c2)CC1` [Compound 6, 1-(3,4-dichlorobenzyl)-4-(5-(4-methylpiperazin-1-yl)-2-(trifluoromethyl)benzyl)piperazine], the inhibition at 1 µM is over 75%. With `CSc1ccc(C(c2ccc(SC)cc2)N2CCN(Cc3cc(N(C)CCN(C)C)ccc3C#N)CC2)cc1` [Compound 102, 2-({4-(bis(4-(methylthio)phenyl]methyl}piperazin-1-yl)methyl)-4-{[2-(dimethylamino)ethyl](methyl)amino}benzonitrile], the inhibition at 1 µM is over 75%. For `CN(C)C1CCN(c2ccc(C(F)(F)F)c(CN3CCN(C(c4ccc(F)cc4)c4ccc(F)cc4)CC3)c2)CC1` [Compound 69, 1-(3-((4-(bis(4-fluorophenyl)methyl)piperazin-1-yl)methyl)-4-(trifluoromethyl)phenyl)-N,N-dimethylpiperidin-4-amine], the inhibition at 1 µM is over 75%.

Take `Cc1cc(CN2CCN(Cc3cc(N4CCCN(C)CC4)ccc3C(F)(F)F)CC2)ccc1Cl` [Compound 4, 1-(3-((4-(4-chloro-3-methylbenzyl)piperazin-1-yl)methyl)-4-(trifluoromethyl)phenyl)-4-methyl-1,4-diazepane]: the inhibition at 1 µM was over 75%.

Turning to `CC(c1ccc(C#N)cc1)N1CCN(Cc2cc(N(C)CCN(C)C)ccc2C(F)(F)F)CC1` (stereo not drawn) [Compound 105, 4-{1-(4-[5-{[2-(dimethylamino)ethyl](methyl)amino}-2-(trifluoromethyl)benzyl]piperazin-1-yl)ethyl}benzonitrile], the inhibition at 1 µM was over 75%. In the case of `CN(CC1CCCN1C)c1ccc(C(F)(F)F)c(CN2CCN(C(c3ccc(Cl)cc3)c3ccc(Cl)cc3)CC2)c1` (stereo not drawn) [Compound 62, 3-((4-(bis(4-chlorophenyl)methyl)piperazin-1-yl)methyl)-N-methyl-N-((1-methylpyrrolidin-2-yl)methyl)-4-(trifluoromethyl)aniline], the inhibition at 1 µM was over 75%.

Turning to `CCN(C)CCN(C)c1ccc(C#N)c(CN2CCN(C(C)c3ccc(Cl)cc3)CC2)c1` (stereo not drawn) [Compound 13, 2-((4-(1-(4-chlorophenyl)ethyl)piperazin-1-yl)methyl)-4-((2-(ethyl(methyl)amino)ethyl)(methyl)amino)benzonitrile], the inhibition at 1 µM is over 75%.

`CN1CCCN(c2ccc(C(F)(F)F)c(CN3CCN(C(c4ccccc4)c4ccc(F)cc4)CC3)c2)CC1` (stereo not drawn) [Compound 51, 1-(3-((4-((4-fluorophenyl)(phenyl)methyl)piperazin-1-yl)methyl)-4-(trifluoromethyl)phenyl)-4-methyl-1,4-diazepane]: the inhibition at 1 µM was over 75%. As for `N#Cc1ccc(NCCCn2ccnc2)cc1CN1CCN(C(c2ccc(Cl)cc2)c2ccc(Cl)cc2)CC1` [Compound 106, 4-([3-(1H-imidazol-1-yl)propyl]amino)-2-({4-[bis(4-chlorophenyl)methyl]piperazin-1-yl}methyl)benzonitrile], the figure is over 75%; as for `CN(C)CCN(C)c1ccc(C(F)(F)F)c(CN2CCN(c3ccc(Cl)c(Cl)c3)CC2)c1` [Compound 107, N^1-(3-((4-(3,4-dichlorophenyl)piperazin-1-yl)methyl)-4-(trifluoromethyl)phenyl)-N^1,N^2,N^2-trimethylethan-1,2-diamine], over 75%. For the compound `CN(C)CCN(C)CCN(C)c1ccc(C(F)(F)F)c(CN2CCN(C(c3ccc(F)cc3)c3ccc(F)cc3)CC2)c1` [Compound 71, N^1-(3-((4-(bis(4-fluorophenyl)methyl)piperazin-1-yl)methyl)-4-(trifluoromethyl)phenyl)-N^2-(2-(dimethylamino)ethyl)-N^1,N^2-dimethylethan-1,2-diamine], the inhibition at 1 µM was over 75%. `CN1CCCN(c2ccc(C#N)c(CN3CCN(C(c4ccccc4)c4ccc(Cl)cc4)CC3)c2)CC1` (stereo not drawn) [Compound 88, 2-((4-((4-chlorophenyl)(phenyl)methyl)piperazin-1-yl)methyl)-4-(4-methyl-1,4-diazepan-1-yl)benzonitrile]: the inhibition at 1 µM was over 75%. Next, `CN(C)CCN(C)c1ccc(C(F)(F)F)c(CN2CCN(C(c3ccc(C4CC4)cc3)c3ccc(C4CC4)cc3)CC2)c1` [Compound 49, N^1-(3-((4-(bis(4-cyclopropylphenyl)methyl)piperazin-1-yl)methyl)-4-(trifluoromethyl)phenyl)-N^1,N^2,N^2-trimethylethan-1,2-diamine]: over 75%; `CN(CCN1CCC1)c1ccc(C(F)(F)F)c(CN2CCN(C(c3ccc(Cl)cc3)c3ccc(Cl)cc3)CC2)c1` [Compound 50, N-(2-(azetidin-1-yl)ethyl)-3-((4-(bis(4-chlorophenyl)methyl)piperazin-1-yl)methyl)-N-methyl-4-(trifluoromethyl)aniline]: 50 to 75%. Next, `Cc1cc(N2CCN(Cc3cc(N4CCCN(C)CC4)ccc3C(F)(F)F)CC2)ccc1Cl` [Compound 40, 1-(3-((4-(4-chloro-3-methylphenyl)piperazin-1-yl)methyl)-4-(trifluoromethyl)phenyl)-4-methyl-1,4-diazepane]: over 75%. Regarding `CC1CN(C(c2ccc(Cl)cc2)c2ccc(Cl)cc2)CCN1Cc1cc(N2CCCN(C)CC2)ccc1C(F)(F)F` (stereo not drawn) [Compound 61, 1-(3-((4-(bis(4-chlorophenyl)methyl)-2-methylpiperazin-1-yl)methyl)-4-(trifluoromethyl)phenyl)-4-methyl-1,4-diazepane], the inhibition at 1 µM is over 75%. With `CN(CCN1CCCC1)c1ccc(C#N)c(CN2CCN(C(c3ccc(Cl)cc3)c3ccc(Cl)cc3)CC2)c1` [Compound 86, 2-((4-(bis(4-chlorophenyl)methyl)piperazin-1-yl)methyl)-4-(methyl(2-(pyrrolidin-1-yl)ethyl)amino)benzonitrile], the inhibition at 1 µM is over 75%.

Turning to `CC1CN(c2ccc(Br)c(C(F)(F)F)c2)CCN1Cc1cc(N(C)CCN(C)C)ccc1C(F)(F)F` (stereo not drawn) [Compound 33, N^1-(3-((4-(4-bromo-3-(trifluoromethyl)phenyl)-2-methylpiperazin-1-yl)methyl)-4-(trifluoromethyl)phenyl)-N^1,N^2,N^2-trimethylethan-1,2-diamine], the inhibition at 1 µM is over 75%. In the case of `CN(C)CCN(C)c1ccc(C#N)c(CN2CCN(C(c3ccc(C4CC4)cc3)c3ccc(C4CC4)cc3)CC2)c1` [Compound 84, 2-((4-(bis(4-cyclopropylphenyl)methyl)piperazin-1-yl)methyl)-4-((2-(dimethylamino)ethyl)(methyl)amino)benzonitrile], the inhibition at 1 µM is over 75%. As for `CN1CCN(c2ccc(C(F)(F)F)c(CN3CCN(c4ccc(Cl)cc4)CC3)c2)CC1` [Compound 30, 1-(4-chlorophenyl)-4-(5-(4-methylpiperazin-1-yl)-2-(trifluoromethyl)benzyl)piperazine], the inhibition at 1 µM is over 75%.

With `CN1CCCN(c2ccc(C(F)(F)F)c(CN3CCN(C(c4ccccc4)c4ccccn4)CC3)c2)CC1` (stereo not drawn) [Compound 57, 1-methyl-4-(3-((4-(phenyl(pyridin-2-yl)methyl)piperazin-1-yl)methyl)-4-(trifluoromethyl)phenyl)-1,4-diazepane], the inhibition at 1 µM is 50 to 75%. Next, `CN(CC1CCCN1C)c1ccc(C(F)(F)F)c(CN2CCN(c3ccc(Br)cc3)CC2)c1` (stereo not drawn) [Compound 24, 3-((4-(4-bromophenyl)piperazin-1-yl)methyl)-N-methyl-N-((1-methylpyrrolidin-2-yl)methyl)-4-(trifluoromethyl)aniline]: over 75%. Take `CN1CCCN(c2ccc(C(F)(F)F)c(CN3CCN(c4ccc(Cl)c(Cl)c4)CC3)c2)CC1` [Compound 109, 1-(3-((4-(3,4-dichlorophenyl)piperazin-1-yl)methyl)-4-(trifluoromethyl)phenyl)-4-methyl-1,4-diazepane]: the inhibition at 1 µM is over 75%.

Consider `CN1CCCN(c2ccc(C#N)c(CN3CCN(C(c4ccc(Cl)cc4)C4CCC4)CC3)c2)CC1` (stereo not drawn) [Compound 97, 2-({4-[(4-chlorophenyl)(cyclobutyl)methyl]piperazin-1-yl}methyl)-4-(4-methyl-1,4-diazepan-1-yl)benzonitrile], for which the inhibition at 1 µM is over 75%. On to `CN1CCCN(c2ccc(C(F)(F)F)c(CN3CCN(C(c4ccc(F)cc4)c4ccc(F)cc4)CC3)c2)CC1` [Compound 44, 1-(3-((4-(bis(4-fluorophenyl)methyl)piperazin-1-yl)methyl)-4-(trifluoromethyl)phenyl)-4-methyl-1,4-diazepane], for which the inhibition at 1 µM was over 75%. For the compound `CN1CCCN(c2ccc(C(F)(F)F)c(CN3CCN(Cc4ccc(Cl)cc4)CC3)c2)CC1` [Compound 2, 1-(3-((4-(4-chlorobenzyl)piperazin-1-yl)methyl)-4-(trifluoromethyl)phenyl)-4-methyl-1,4-diazepane], the inhibition at 1 µM was over 75%. As for `CN1CCCN(c2ccc(C#N)c(CN3CCN(C(c4ccc(F)cc4)c4ccc(F)cc4)CC3)c2)CC1` [Compound 76, 2-((4-(bis(4-fluorophenyl)methyl)piperazin-1-yl)methyl)-4-(4-methyl-1,4-diazepan-1-yl)benzonitrile], the inhibition at 1 µM is over 75%. Take `CN1CCN(c2ccc(C#N)c(CN3CCN(C(c4ccc(C(F)(F)F)cc4)c4cnccn4)CC3)c2)CC1` (stereo not drawn) [Compound 99]: the inhibition at 1 µM lay in the range of 50 to 75%. Turning to `N#Cc1ccc(NCCCn2cccc2)cc1CN1CCN(Cc2ccc(Cl)c(Cl)c2)CC1` [Compound 18, 4-((3-(1H-pyrrol-1-yl)propyl)amino)-2-((4-(3,4-dichlorobenzyl)piperazin-1-yl)methyl)benzonitrile], the inhibition at 1 µM was over 75%.

On to `CN(C)CCN(C)c1ccc(C(F)(F)F)c(CN2CCN(c3ccc(Cl)c(F)c3)CC2)c1` [Compound 41, N^1-(3-((4-(4-chloro-3-fluorophenyl)piperazin-1-yl)methyl)-4-(trifluoromethyl)phenyl)-N^1,N^2,N^2-trimethylethan-1,2-diamine], for which the inhibition at 1 µM was over 75%.
